Source: patent US9603364B2 (Dow AgroSciences LLC, priority 2013, dated 2017)

How the values were obtained:
Experiment in all cases: General post-emergent herbicidal activity, foliar application
Format in all cases: in vivo
Zea mays L. (corn) = settings: 336 h, scored after 14 days, read-out: % Visual Growth Reduction ZEAMX; for plant injury at 70 g/ha: 70 g ai/ha; for plant injury at 140 g/ha: 140 g ai/ha; for plant injury at 280 g/ha: 280 g ai/ha
Method in brief: (§1)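 Injury rated visually 14 days after treatment on a 0 (none) to 100% (complete kill) scale against untreated plants; greenhouse-grown, sub-irrigated to avoid wash-off. Foliar spray in aqueous acetone/DMSO with isopropanol, crop oil concentrate and Triton X-155, at a highest rate and 2-fold serial dilutions down to 1/16×.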

Oryza sativa L. (rice) = settings: Oryza sativa, 336 h, scored after 14 days, read-out: % Visual Growth Reduction ORYSA; for plant injury at 70 g/ha: 70 g ai/ha; for plant injury at 140 g/ha: 140 g ai/ha; for plant injury at 280 g/ha: 280 g ai/ha
Method in brief: as §1

[1] = test system: Echinochloa crus-galli (L.) Beauv. (barnyardgrass); settings: for GR80 Value ECHCG: calculated by probit analysis, dose for 80% visual injury, may be extrapolated; for pest or weed control at 70 g/ha: 70 g ai/ha; for pest or weed control at 140 g/ha: 140 g ai/ha; for pest or weed control at 280 g/ha: 280 g ai/ha
Method in brief: (§2)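 Visual injury ratings on a scale of 0 (none) to 100% (complete kill), taken 14 days after foliar post-emergence treatment of greenhouse plants and compared with untreated plants, were fitted by probit analysis to give GR20, GR50 and GR80 doses; some GR80 values are extrapolated from the slope. Sprays contained crop oil concentrate and surfactant, with rates from the highest down to 1/16×.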

[2] = test system: Chenopodium album L. (lambsquarters, common); settings: for GR80 Value CHEAL: calculated by probit analysis, dose for 80% visual injury, may be extrapolated; for pest or weed control at 70 g/ha: 70 g ai/ha; for pest or weed control at 140 g/ha: 140 g ai/ha; for pest or weed control at 280 g/ha: 280 g ai/ha
Method in brief: as §2

[3] = test system: Viola tricolor L. (pansy); settings: for GR80 Value VIOTR: calculated by probit analysis, dose for 80% visual injury, may be extrapolated; for pest or weed control at 70 g/ha: 70 g ai/ha; for pest or weed control at 140 g/ha: 140 g ai/ha
Method in brief: as §2

[4] = test system: Amaranthus retroflexus L. (pigweed, redroot); settings: for GR80 Value AMARE: calculated by probit analysis, dose for 80% visual injury, may be extrapolated; for pest or weed control at 70 g/ha: 70 g ai/ha; for pest or weed control at 140 g/ha: 140 g ai/ha; for pest or weed control at 280 g/ha: 280 g ai/ha
Method in brief: as §2

[5] = test system: Helianthus annuus L. (sunflower, common); settings: for GR80 Value HELAN: calculated by probit analysis, dose for 80% visual injury, may be extrapolated; for pest or weed control at 70 g/ha: 70 g ai/ha; for pest or weed control at 140 g/ha: 140 g ai/ha; for pest or weed control at 280 g/ha: 280 g ai/ha
Method in brief: as §2

[6] = test system: Euphorbia heterophylla L. (poinsettia, wild); settings: for GR80 Value EPHHL: calculated by probit analysis, dose for 80% visual injury, may be extrapolated; for pest or weed control at 70 g/ha: 70 g ai/ha; for pest or weed control at 140 g/ha: 140 g ai/ha; for pest or weed control at 280 g/ha: 280 g ai/ha
Method in brief: as §2

[7] = Echinochloa crus-galli, 336 h, foliar post-emergent, scored after 14 days, read-out: % Visual Growth Reduction ECHCG
[8] = Chenopodium album, 336 h, foliar post-emergent, scored after 14 days, read-out: % Visual Growth Reduction CHEAL
[9] = Viola tricolor, 336 h, foliar post-emergent, scored after 14 days, read-out: % Visual Growth Reduction VIOTR
[10] = Amaranthus retroflexus, 336 h, foliar post-emergent, scored after 14 days, read-out: % Visual Growth Reduction AMARE
[11] = Helianthus annuus, 336 h, foliar post-emergent, scored after 14 days, read-out: % Visual Growth Reduction HELAN
[12] = Euphorbia heterophylla, 336 h, foliar post-emergent, scored after 14 days, read-out: % Visual Growth Reduction EPHHL

## COC(=O)c1nc(CF)cc(N)c1Cl [Compound F26, methyl 4-amino-3-chloro-6-(fluoromethyl)picolinate]
Zea mays L. (corn); 37 g ai/ha
  plant injury at 37 g/ha: 0%
Zea mays L. (corn); 74 g ai/ha
  plant injury at 74 g/ha: 0%
Zea mays L. (corn); 148 g ai/ha
  plant injury at 148 g/ha: 10%
Oryza sativa L. (rice); 37 g ai/ha
  plant injury at 37 g/ha: 0%
Oryza sativa L. (rice); 74 g ai/ha
  plant injury at 74 g/ha: 0%
Oryza sativa L. (rice); 148 g ai/ha
  plant injury at 148 g/ha: 0%
[1]; Echinochloa crus-galli, 336 h, 37 g ai/ha, foliar post-emergent, scored after 14 days, read-out: % Visual Growth Reduction ECHCG
  pest or weed control at 37 g/ha: 0%
[1]; Echinochloa crus-galli, 336 h, 74 g ai/ha, foliar post-emergent, scored after 14 days, read-out: % Visual Growth Reduction ECHCG
  pest or weed control at 74 g/ha: 0%
[1]; Echinochloa crus-galli, 336 h, 148 g ai/ha, foliar post-emergent, scored after 14 days, read-out: % Visual Growth Reduction ECHCG
  pest or weed control at 148 g/ha: 20%
[1]
  GR80 Value ECHCG: >148 g ai/ha
[2]; Chenopodium album, 336 h, 37 g ai/ha, foliar post-emergent, scored after 14 days, read-out: % Visual Growth Reduction CHEAL
  pest or weed control at 37 g/ha: 90%
[2]; Chenopodium album, 336 h, 74 g ai/ha, foliar post-emergent, scored after 14 days, read-out: % Visual Growth Reduction CHEAL
  pest or weed control at 74 g/ha: 90%
[2]; Chenopodium album, 336 h, 148 g ai/ha, foliar post-emergent, scored after 14 days, read-out: % Visual Growth Reduction CHEAL
  pest or weed control at 148 g/ha: 90%
[2]
  GR80 Value CHEAL: 29 g ai/ha
[3]; Viola tricolor, 336 h, 37 g ai/ha, foliar post-emergent, scored after 14 days, read-out: % Visual Growth Reduction VIOTR
  pest or weed control at 37 g/ha: 10%
[3]; Viola tricolor, 336 h, 74 g ai/ha, foliar post-emergent, scored after 14 days, read-out: % Visual Growth Reduction VIOTR
  pest or weed control at 74 g/ha: 15%
[3]; Viola tricolor, 336 h, 148 g ai/ha, foliar post-emergent, scored after 14 days, read-out: % Visual Growth Reduction VIOTR
  pest or weed control at 148 g/ha: 70%
[3]
  GR80 Value VIOTR: 223 g ai/ha
[4]; Amaranthus retroflexus, 336 h, 37 g ai/ha, foliar post-emergent, scored after 14 days, read-out: % Visual Growth Reduction AMARE
  pest or weed control at 37 g/ha: 0%
[4]; Amaranthus retroflexus, 336 h, 74 g ai/ha, foliar post-emergent, scored after 14 days, read-out: % Visual Growth Reduction AMARE
  pest or weed control at 74 g/ha: 80%
[4]; Amaranthus retroflexus, 336 h, 148 g ai/ha, foliar post-emergent, scored after 14 days, read-out: % Visual Growth Reduction AMARE
  pest or weed control at 148 g/ha: 90%
[4]
  GR80 Value AMARE: 104 g ai/ha
[5]; Helianthus annuus, 336 h, 37 g ai/ha, foliar post-emergent, scored after 14 days, read-out: % Visual Growth Reduction HELAN
  pest or weed control at 37 g/ha: 70%
[5]; Helianthus annuus, 336 h, 74 g ai/ha, foliar post-emergent, scored after 14 days, read-out: % Visual Growth Reduction HELAN
  pest or weed control at 74 g/ha: 90%
[5]; Helianthus annuus, 336 h, 148 g ai/ha, foliar post-emergent, scored after 14 days, read-out: % Visual Growth Reduction HELAN
  pest or weed control at 148 g/ha: 90%
[5]
  GR80 Value HELAN: 48.3 g ai/ha
[6]; Euphorbia heterophylla, 336 h, 37 g ai/ha, foliar post-emergent, scored after 14 days, read-out: % Visual Growth Reduction EPHHL
  pest or weed control at 37 g/ha: 90%
[6]; Euphorbia heterophylla, 336 h, 74 g ai/ha, foliar post-emergent, scored after 14 days, read-out: % Visual Growth Reduction EPHHL
  pest or weed control at 74 g/ha: 100%
[6]; Euphorbia heterophylla, 336 h, 148 g ai/ha, foliar post-emergent, scored after 14 days, read-out: % Visual Growth Reduction EPHHL
  pest or weed control at 148 g/ha: 100%
[6]
  GR80 Value EPHHL: 38.8 g ai/ha

## Nc1cc(C(F)F)nc(C(=O)O)c1Cl [Compound F27]
Zea mays L. (corn); 35 g ai/ha
  plant injury at 35 g/ha: 20%
Zea mays L. (corn)
  plant injury at 70 g/ha: 50%
  plant injury at 140 g/ha: 60%
  plant injury at 280 g/ha: 60%
Oryza sativa L. (rice)
  plant injury at 70 g/ha: 13%
  plant injury at 140 g/ha: 15%
  plant injury at 280 g/ha: 20%
[1]; Echinochloa crus-galli, 336 h, 35 g ai/ha, foliar post-emergent, scored after 14 days, read-out: % Visual Growth Reduction ECHCG
  pest or weed control at 35 g/ha: 0%
[1]; [7]
  pest or weed control at 70 g/ha: 65%
  pest or weed control at 140 g/ha: 80%
  pest or weed control at 280 g/ha: 80%
[1]
  GR80 Value ECHCG: 187 g ai/ha
[2]; Chenopodium album, 336 h, 35 g ai/ha, foliar post-emergent, scored after 14 days, read-out: % Visual Growth Reduction CHEAL
  pest or weed control at 35 g/ha: 100%
[2]; [8]
  pest or weed control at 70 g/ha: 100%
  pest or weed control at 140 g/ha: 100%
  pest or weed control at 280 g/ha: 100%
[2]
  GR80 Value CHEAL: <17.5 g ai/ha
[3]; Viola tricolor, 336 h, 35 g ai/ha, foliar post-emergent, scored after 14 days, read-out: % Visual Growth Reduction VIOTR
  pest or weed control at 35 g/ha: 80%
[3]; [9]
  pest or weed control at 70 g/ha: 100%
  pest or weed control at 140 g/ha: 100%
[3]
  GR80 Value VIOTR: 59.2 g ai/ha
[4]; Amaranthus retroflexus, 336 h, 35 g ai/ha, foliar post-emergent, scored after 14 days, read-out: % Visual Growth Reduction AMARE
  pest or weed control at 35 g/ha: 90%
[4]; [10]
  pest or weed control at 70 g/ha: 90%
  pest or weed control at 140 g/ha: 100%
  pest or weed control at 280 g/ha: 100%
[4]
  GR80 Value AMARE: 17.5 g ai/ha
[5]; Helianthus annuus, 336 h, 35 g ai/ha, foliar post-emergent, scored after 14 days, read-out: % Visual Growth Reduction HELAN
  pest or weed control at 35 g/ha: 90%
[5]; [11]
  pest or weed control at 70 g/ha: 100%
  pest or weed control at 140 g/ha: 100%
  pest or weed control at 280 g/ha: 100%
[5]
  GR80 Value HELAN: <17.5 g ai/ha
[6]; Euphorbia heterophylla, 336 h, 35 g ai/ha, foliar post-emergent, scored after 14 days, read-out: % Visual Growth Reduction EPHHL
  pest or weed control at 35 g/ha: 90%
[6]; [12]
  pest or weed control at 70 g/ha: 100%
  pest or weed control at 140 g/ha: 100%
  pest or weed control at 280 g/ha: 100%
[6]
  GR80 Value EPHHL: <17.5 g ai/ha

## COC(=O)c1nc(C(F)CF)cc(N)c1Cl (stereo not drawn) [Compound F28, methyl 4-amino-3-chloro-6-(1,2-difluoroethyl)picolinate]
Zea mays L. (corn)
  plant injury at 70 g/ha: 10%
  plant injury at 140 g/ha: 10%
  plant injury at 280 g/ha: 10%
Oryza sativa L. (rice)
  plant injury at 70 g/ha: 0%
  plant injury at 140 g/ha: 0%
  plant injury at 280 g/ha: 0%
[1]; [7]
  pest or weed control at 70 g/ha: 0%
  pest or weed control at 140 g/ha: 0%
  pest or weed control at 280 g/ha: 0%
[1]
  GR80 Value ECHCG: >280 g ai/ha
[2]; [8]
  pest or weed control at 70 g/ha: 90%
  pest or weed control at 140 g/ha: 80%
  pest or weed control at 280 g/ha: 90%
[2]
  GR80 Value CHEAL: 17.5 g ai/ha
[3]; [9]
  pest or weed control at 70 g/ha: 15%
  pest or weed control at 140 g/ha: 75%
[3]; Viola tricolor, 336 h, 280 g ai/ha, foliar post-emergent, scored after 14 days, read-out: % Visual Growth Reduction VIOTR
  pest or weed control at 280 g/ha: 90%
[3]
  GR80 Value VIOTR: 197 g ai/ha
[4]; [10]
  pest or weed control at 70 g/ha: 80%
  pest or weed control at 140 g/ha: 100%
  pest or weed control at 280 g/ha: 100%
[4]
  GR80 Value AMARE: 66.4 g ai/ha
[5]; [11]
  pest or weed control at 70 g/ha: 80%
  pest or weed control at 140 g/ha: 90%
  pest or weed control at 280 g/ha: 95%
[5]
  GR80 Value HELAN: 52.9 g ai/ha
[6]; [12]
  pest or weed control at 70 g/ha: 80%
  pest or weed control at 140 g/ha: 100%
  pest or weed control at 280 g/ha: 100%
[6]
  GR80 Value EPHHL: 73 g ai/ha
